Data taken from patent publication US10954214B2 (Janssen Pharmaceutica NV, priority 2016, dated 2021).

Tests used:
[1] = system: IL10 secretion by OCI-LY3 ABC-DLBCL cells; experiment: Human IL10 Mesoscale assay (OCI-LY3); format: cell-based; details: Homo sapiens, 24 h
Experimental: (§1) NFKB signaling regulates the secretion of multiple cytokines, including IL6 and IL10. Secretion of the cytokines IL6 and IL10 by TMD8 or OCI-LY3 ABC-DLBCL cells was measured using a mesoscale assay. Inhibition of NFKB signaling by MALT1 or BTK inhibitors results in a decrease of IL6/10 secretion.
(§2) TMD8 or OCI-LY3 cells were propagated in RPMI-1640 (Sigma Aldrich) supplemented with 10% fetal bovine serum (HyClone), 1 mM sodium pyruvate (Invitrogen), 2 mM L-glutamine (Sigma Aldrich) and 1% PenStrep (Sigma Aldrich). Cell passage number should not exceed 30. Cells should be kept between 0.5-2.5 million cells per mL during culturing and cells should be supplemented every 2-3 days with fresh 50 μM beta-mercaptoenthanol. No beta-mercaptoethanol was used during the mesoscale assay.
(§3) For the Mesoscale assay, 100,000 TMD8 or OCI-LY3 cells were seeded per well into black-colored 96-well plates with clear bottom (Corning #3904) and test compounds were added in 9 dilution steps (1:2) ranging from 15 μM to 58.6 nM (final DMSO concentration 0.3%). DMSO control wells were used to determine the maximum signal (High Control (HC)). Treatment with the BTK inhibitor RN486 in a dose range from 30 nM to 131 pM (9 dilutions of 1:2) served as a positive control for NFKB pathway inhibition and was used to determine the maximum inhibition (Low Control (LC)). Compounds and cells were incubated for 24 h at 37° C. and 5% CO2 (assay volume is 150 μL). After 24 h of incubation 50 μL of the supernatant was transferred to a MSD plate (V-Plex Proinflammation Panel 1 (human) kit, Mesoscale (MSD)) and incubated for 2 h with vigorous shaking (600 rpm) at room temperature. Following incubation, plates were washed 3× with PBS+0.05% Tween-20 and 25 μL detection antibody solution (IL6 & IL10 antibodies in diluent 3 (MSD)) was added per well followed by 2 h of incubation with vigorous shaking (600 rpm) at room temperature. After 3× washes with PBS+0.05% Tween-20, plates were incubated with 150 μL 2× Read Buffer T and read on SECTOR imager.

[2] = system: IL6 secretion by OCI-LY3 ABC-DLBCL cells; experiment: Human IL6 Mesoscale assay (OCI-LY3); format: cell-based; details: Homo sapiens, 24 h
Experimental: as §1, §2, §3

[3] = target: full-length MALT1 protein (Strep-MALT1(1-824)-His) (Homo sapiens (Human), UniProt Q9UDY8); experiment: MALT1 Biochemical Protease Assay (Ac-LRSR-AMC substrate); details: 10 nM FL MALT1, 200 μM Ac-LRSR-AMC, 4 h at RT; read-out: MALT1_Biochemical activity (Ac-LRSR-amc) IC50
How it was run: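 Fluorescence from AMC release off the quenched LRSR substrate was read after a 4 h reaction at RT. Values were normalised to no-enzyme and uninhibited controls and fitted for IC50 and Hill coefficient.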

full-length MALT1 protein (Strep-MALT1(1-824)-His), sequence (Q9UDY8 whole entry): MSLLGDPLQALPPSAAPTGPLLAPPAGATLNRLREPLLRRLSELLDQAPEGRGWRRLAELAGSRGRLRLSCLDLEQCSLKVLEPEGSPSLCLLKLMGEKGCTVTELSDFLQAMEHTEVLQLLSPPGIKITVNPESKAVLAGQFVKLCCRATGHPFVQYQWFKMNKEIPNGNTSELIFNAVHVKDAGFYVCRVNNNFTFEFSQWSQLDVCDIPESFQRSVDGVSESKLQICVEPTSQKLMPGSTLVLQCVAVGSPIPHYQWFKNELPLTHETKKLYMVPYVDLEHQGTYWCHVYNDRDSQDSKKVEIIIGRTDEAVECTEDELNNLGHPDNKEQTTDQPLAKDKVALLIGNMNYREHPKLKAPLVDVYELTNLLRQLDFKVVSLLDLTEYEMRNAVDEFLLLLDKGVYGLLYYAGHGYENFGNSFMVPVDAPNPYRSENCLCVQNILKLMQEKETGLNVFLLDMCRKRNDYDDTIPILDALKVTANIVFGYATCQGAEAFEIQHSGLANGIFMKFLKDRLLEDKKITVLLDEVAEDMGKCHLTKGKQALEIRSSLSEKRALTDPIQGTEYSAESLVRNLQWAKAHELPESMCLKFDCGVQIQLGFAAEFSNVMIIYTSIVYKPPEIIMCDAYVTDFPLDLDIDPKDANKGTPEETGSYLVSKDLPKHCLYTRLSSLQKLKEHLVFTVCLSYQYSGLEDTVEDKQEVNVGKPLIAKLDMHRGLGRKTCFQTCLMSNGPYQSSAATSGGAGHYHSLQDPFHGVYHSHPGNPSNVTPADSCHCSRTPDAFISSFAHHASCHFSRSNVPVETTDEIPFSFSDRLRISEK

SMILES | IC50 [1] [nM] | IC50 [2] [nM] | IC50 [3] [nM]
N#Cc1cc(NC(=O)c2cnn(-c3cccc4ncnn34)c2C(F)(F)F)cnc1-n1nccn1 [Cpd 274, 1-([1,2,4]triazolo[1,5-a]pyridin-5-yl)-N-(5-cyano-6-(2H-1,2,3-triazol-2-yl)pyridin-3-yl)-5-(trifluoromethyl)-1H-pyrazole-4-carboxamide] | 3160 | 2750 | 141
Cc1cc(-n2nccn2)c(Cl)cc1NC(=O)c1cnn(-c2cnc(N)c3ccccc23)c1C(F)(F)F [Cpd 335, 1-(1-aminoisoquinolin-4-yl)-N-(5-chloro-2-methyl-4-(2H-1,2,3-triazol-2-yl)phenyl)-5-(trifluoromethyl)-1H-pyrazole-4-carboxamide] | 60 | 132 | 174
CCOc1ncc(-n2ncc(C(=O)Nc3cnc(-n4nccn4)c(Cl)c3)c2C(F)(F)F)c2ccccc12 [Cpd 422, N-(5-chloro-6-(2H-1,2,3-triazol-2-yl)pyridin-3-yl)-1-(1-ethoxyisoquinolin-4-yl)-5-(trifluoromethyl)-1H-pyrazole-4-carboxamide] | 174 | 191 | 11
O=C(Nc1cnc(-n2nccn2)c(Cl)c1)c1cnn(-c2cnc(Cl)c3sccc23)c1C(F)(F)F [Cpd 424, N-(5-chloro-6-(2H-1,2,3-triazol-2-yl)pyridin-3-yl)-1-(7-chlorothieno[2,3-c]pyridin-4-yl)-5-(trifluoromethyl)-1H-pyrazole-4-carboxamide] | 182 | 166 | 72
N#Cc1cc(NC(=O)c2cnn(-c3cccc4nc(N)ccc34)c2C(F)(F)F)cnc1-n1nccn1 [Cpd 332, 1-(2-aminoquinolin-5-yl)-N-(5-cyano-6-(2H-1,2,3-triazol-2-yl)pyridin-3-yl)-5-(trifluoromethyl)-1H-pyrazole-4-carboxamide] | 44 | 48 | 417
O=C(Nc1cnc(-n2nccn2)c(Cl)c1)c1cnn(-c2cnc(C3CCCN3)c3ccccc23)c1C(F)(F)F (stereo not drawn) [Cpd 380, N-(5-chloro-6-(2H-1,2,3-triazol-2-yl)pyridin-3-yl)-1-(1-(pyrrolidin-2-yl)isoquinolin-4-yl)-5-(trifluoromethyl)-1H-pyrazole-4-carboxamide] | 24 | 46 | 447
O=C(Nc1cnc(-n2nccn2)c(Cl)c1)c1cnn(-c2ccc3nccn3n2)c1C(F)(F)F [Cpd 242, N-(5-chloro-6-(2H-1,2,3-triazol-2-yl)pyridin-3-yl)-1-(imidazo[1,2-b]pyridazin-6-yl)-5-(trifluoromethyl)-1H-pyrazole-4-carboxamide] | 54 | 65 | 437
Cc1cnn(-c2nc(C)c(NC(=O)c3cnn(-c4cccc5c(=O)[nH]ccc45)c3C(F)(F)F)cc2Cl)n1 [Cpd 359, N-(5-chloro-2-methyl-6-(4-methyl-2H-1,2,3-triazol-2-yl)pyridin-3-yl)-1-(1-oxo-1,2-dihydroisoquinolin-5-yl)-5-(trifluoromethyl)-1H-pyrazole-4-carboxamide] | 91 | 98 | 28
COc1ncc(NC(=O)c2cnn(-c3cccc4c(=O)[nH]ccc34)c2C(F)(F)F)cc1Cl [Cpd 345, N-(5-chloro-6-methoxypyridin-3-yl)-1-(1-oxo-1,2-dihydroisoquinolin-5-yl)-5-(trifluoromethyl)-1H-pyrazole-4-carboxamide] | 58 | 79 | 93
O=C(Nc1cnc(-c2ncco2)c(Cl)c1)c1cnn(-c2ccc(F)c3ncccc23)c1C(F)(F)F [Cpd 288, N-(5-chloro-6-(oxazol-2-yl)pyridin-3-yl)-1-(8-fluoroquinolin-5-yl)-5-(trifluoromethyl)-1H-pyrazole-4-carboxamide] | 91 | 251 | 95

Continued by falling IC50 [1], values first:

IC50 [1] [nM] | IC50 [2] [nM] | IC50 [3] [nM] | SMILES
479 | 457 | 20 | COc1ncc(-n2ncc(C(=O)Nc3cnc(-n4nccn4)c(Cl)c3)c2C(F)(F)F)c2ccccc12 [Cpd 421, N-(5-chloro-6-(2H-1,2,3-triazol-2-yl)pyridin-3-yl)-1-(1-methoxyisoquinolin-4-yl)-5-(trifluoromethyl)-1H-pyrazole-4-carboxamide]
219 | 141 | 129 | Nc1nc2cccc(-n3ncc(C(=O)Nc4cnc(-n5nccn5)c(Cl)c4)c3C(F)(F)F)c2s1 [Cpd 278, 1-(2-aminobenzo[d]thiazol-7-yl)-N-(5-chloro-6-(2H-1,2,3-triazol-2-yl)pyridin-3-yl)-5-(trifluoromethyl)-1H-pyrazole-4-carboxamide]
158 | 204 | 9 | O=C(Nc1cnc(-n2nccn2)c(Cl)c1)c1cnn(-c2cnc(N3CC[C@@H](O)C3)c3ccccc23)c1C(F)(F)F [Cpd 427, (R)—N-(5-chloro-6-(2H-1,2,3-triazol-2-yl)pyridin-3-yl)-1-(1-(3-hydroxypyrrolidin-1-yl)isoquinolin-4-yl)-5-(trifluoromethyl)-1H-pyrazole-4-carboxamide]
126 | 102 | 2690 | Cc1nc2c(-n3ncc(C(=O)Nc4cnc(-n5nccn5)c(C#N)c4)c3C(F)(F)F)cccc2o1 [Cpd 219, N-(5-cyano-6-(2H-1,2,3-triazol-2-yl)pyridin-3-yl)-1-(2-methylbenzo[d]oxazol-4-yl)-5-(trifluoromethyl)-1H-pyrazole-4-carboxamide]
123 | 132 | 91 | N#Cc1cc(NC(=O)c2cnn(-c3cnc(F)c4ccccc34)c2C(F)(F)F)cnc1-n1nccn1 [Cpd 289, N-(5-cyano-6-(2H-1,2,3-triazol-2-yl)pyridin-3-yl)-1-(1-fluoroisoquinolin-4-yl)-5-(trifluoromethyl)-1H-pyrazole-4-carboxamide]
115 | 151 | 79 | N#Cc1cc(NC(=O)c2cnn(-c3ncnc4occc34)c2C(F)(F)F)cnc1-n1nccn1 [Cpd 292, N-(5-cyano-6-(2H-1,2,3-triazol-2-yl)pyridin-3-yl)-1-(furo[2,3-d]pyrimidin-4-yl)-5-(trifluoromethyl)-1H-pyrazole-4-carboxamide]
100 | 129 | 79 | Nc1ncc(-n2ncc(C(=O)Nc3cc(Cl)c(-n4nccn4)cc3F)c2C(F)(F)F)c2ccccc12 [Cpd 327, 1-(1-aminoisoquinolin-4-yl)-N-(5-chloro-2-fluoro-4-(2H-1,2,3-triazol-2-yl)phenyl)-5-(trifluoromethyl)-1H-pyrazole-4-carboxamide]
85 | 83 | 155 | N#Cc1cc(NC(=O)c2cnn(-c3ccnc4cccnc34)c2C(F)(F)F)cnc1-n1nccn1 [Cpd 269, N-(5-cyano-6-(2H-1,2,3-triazol-2-yl)pyridin-3-yl)-1-(1,5-naphthyridin-4-yl)-5-(trifluoromethyl)-1H-pyrazole-4-carboxamide]
66 | 85 | 145 | Cn1ccc(-c2ncc(NC(=O)c3cnn(-c4ccc(F)c5ncccc45)c3C(F)(F)F)cc2Cl)n1 [Cpd 273, N-(5-chloro-6-(1-methyl-1H-pyrazol-3-yl)pyridin-3-yl)-1-(8-fluoroquinolin-5-yl)-5-(trifluoromethyl)-1H-pyrazole-4-carboxamide]
25 | 50 | 1350 | Cc1cc(-n2nccn2)c(C#N)cc1NC(=O)c1cnn(-c2cccc3scnc23)c1C(F)(F)F [Cpd 298, 1-(benzo[d]thiazol-4-yl)-N-(5-cyano-2-methyl-4-(2H-1,2,3-triazol-2-yl)phenyl)-5-(trifluoromethyl)-1H-pyrazole-4-carboxamide]
12 | 17 | 138 | CN(C=O)Cc1ncc(-n2ncc(C(=O)Nc3cnc(-n4nccn4)c(Cl)c3)c2C(F)(F)F)c2ccccc12 [Cpd 373, N-(5-chloro-6-(2H-1,2,3-triazol-2-yl)pyridin-3-yl)-1-(1-((N-methylformamido)methyl)isoquinolin-4-yl)-5-(trifluoromethyl)-1H-pyrazole-4-carboxamide]
